# Data published in patent US20070270350A1, “Methods and Compositions for the Prevention and Treatment of Inflammatory Diseases or Conditions” (MUSC FOUNDATION FOR RESEARCH DEVELOPMENT, priority 2003, published 2007).
# Assays:
# iNOS [1] = test: LPS/IFN-induced NO production and iNOS expression in C6 glioma cells; assay type: cell-based, rat; details: D-PDMP 10, 25, 50 μM, 0.5 hr pretreatment
# Experimental: C6 rat glioma cells obtained from ATCC were maintained in Dulbecco's modified Eagle's medium (DMEM) (GIBCO, CA) containing 10% fetal bovine serum (FBS) (GIBCO) and 10 ? g/ml gentamicin. All the cultured cells were maintained at 37° C. in 5% CO2/95% air. At 80% confluency, the cells were incubated with serum free DMEM medium for 24 h prior to the incubation with LPS/IFN ? and other chemicals. Assay for NO production. Cells were cultured in 12-well plastic tissue culture plates. After the appropriate treatment, production of NO was determined by an assay of the culture supernatant for nitrite (Green et al., 1982). Briefly, 100 μl of culture supernatant was allowed to react with 100 μl of Griess reagent. The optical density of the assay samples was measured spectrophotometrically at 570 nm. Nitrite concentrations were calculated from a standard curve derived from the reaction of NaNO2 in fresh media. Western Blot Analysis. […] The protein concentration of samples was determined with the detergent compatible protein assay reagent (Bio-Rad Laboratories, CA) using bovine serum albumin (BSA) as the standard. Sample was boiled for 3 min with 0.1 volumes of 10% O-mercaptoethanol and 0.5% bromophenol blue mix. Fifty μg of total cellular protein was resolved by electrophoresis in 8 or 12% polyacrylamide gels, electro-transferred to polyvinylidene difluoride (PVDF) filter and blocked with Tween 20 containing Tris-buffered saline [TBST; 10 mM Trizma base (pH 7.4), 1% Tween 20, and 150 mM NaCl] with 5% skim milk. After incubation with antiserum against iNOS (BD PharMingen, CA), or hRas (Upstate Biotechnology, CA), or phospho-specific MAPK (p42/44) (Signal Transduction), in PVDF buffer for 2 h at room temperature, the filters were washed 3 times with TBST buffer and then incubated with horseradish peroxidase conjugated anti-rabbit or mouse IgG for 1 h. The membranes were autoradiographed by using ECL-plus (Amersham Pharmacia Biotech) after washing with TBST buffer. RT-PCR amplification. […] PCR amplification was conducted in 25 ? l of reaction mixture with 1.0 ? l of cDNA, […] and under the manufacturer's Taq polymerase conditions (Takara, […] Shuzo Co. Ltd, Japan). The sequence of primers used for PCR amplification are as follows; iNOS, (Forward-[NT], Reverse-[NT]), GalT-2 (Forward-[NT], Reverse-[NT]), GAPDH (Forward-[NT], Reverse-[NT]).
# iNOS [2] = test: LPS/IFN-induced NO production and iNOS gene expression in primary astrocytes; assay type: cell-based, rat; details: D-PDMP 0, 10, 25, 50 μM, 0.5 h pretreatment
# [3] = target: T1, lactosylceramide synthase (GalT-2) (Rattus norvegicus, UniProt O88419); test: Measurement of lactosylceramide synthesis in primary astrocytes; assay type: cell-based; details: D-PDMP pretreatment 0.5 hr; 14C-galactose labelling, HPTLC
# T1 construct: endogenous in cells; host or cells: primary astrocytes
# T1 sequence (O88419 1-382): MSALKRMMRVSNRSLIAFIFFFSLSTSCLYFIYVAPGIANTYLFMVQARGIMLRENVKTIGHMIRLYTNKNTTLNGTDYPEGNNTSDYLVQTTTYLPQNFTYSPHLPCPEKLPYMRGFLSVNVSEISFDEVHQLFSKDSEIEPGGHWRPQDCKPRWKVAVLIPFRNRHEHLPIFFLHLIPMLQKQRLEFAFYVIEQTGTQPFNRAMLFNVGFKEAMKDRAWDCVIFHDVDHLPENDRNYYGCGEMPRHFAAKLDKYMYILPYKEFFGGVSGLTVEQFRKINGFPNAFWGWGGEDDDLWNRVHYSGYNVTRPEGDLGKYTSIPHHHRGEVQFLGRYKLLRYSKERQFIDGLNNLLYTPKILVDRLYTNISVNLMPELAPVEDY
# Experimental: Measurement of lactosylceramide synthesis. Cultured cells were incubated in growth medium containing [^14C] galactose (5 ? Ci/ml) for 24 h as described previously. The medium was removed, and the cell monolayer was washed with sterile PBS to remove nonspecifically adsorbed radioactivity and fresh serum free medium was added. After the stimulation of cells with LPS/IFN ? (1 ? g/ml; 10 U/ml) for various durations cells were then harvested and washed with ice cold PBS and lysed by sonication. Following protein quantification, […] of protein was used for extraction of lipids using Chloroform:Methanol:HCl (100:100:1). The organic phase was dried under nitrogen. Glycosphingolipids were resolved by high performance thin layer chromatography using chloroform/methanol/0.25% KCl (70:30:4, v/v/v) as the developing solvent. The chromatographic plate was dried in air and stained with iodine vapors. The gel area corresponding to LacCer was scraped, and radioactivity was measured employing “liquiscint” (NEN Life Science Products) as a scintillating fluid.
compound,measurement,setting,value
"CCCCCCCCCC(=O)NC(CN1CCOCC1)C(O)c1ccccc1.Cl [D-PDMP, D-threo-1-Phenyl-2-decanoylamino-3-morpholino-1-propanol HCl]",LPS/IFN induced NO production,iNOS [1],inhibited
same,iNOS protein and mRNA levels,iNOS [1],inhibited
same,production of nitric oxide (NO),"iNOS [2]; LPS/IFN 1 μg/ml, 10 U/ml, 24 hrs",dose dependent decrease
same,mRNA and protein levels of iNOS,"iNOS [2]; LPS/IFN, mRNA 6 hrs, protein 24 hrs",dose dependent decrease
same,increase in LacCer biosynthesis following LPS/IFN stimulation,[3],inhibited this increase
